Measured values as given in ChEMBL document CHEMBL2417397, “Synthesis and biological properties of new N-Mannich bases derived from 3-methyl-3-phenyl- and 3,3-dimethyl-succinimides. Part V” (Eur J Med Chem, 2013).
Calls of active or inactive are those of the source. The rule behind the calls is not given here.

Key:
[1] = Neurotoxicity in ip dosed CF-1 albino mouse after 4 hrs by rotarod test; format: toxicity, organism-based; details: CF-1, mouse, in vivo
[2] = Neurotoxicity in ip dosed CF-1 albino mouse after 0.5 hrs by rotarod test; format: toxicity, organism-based; details: CF-1, mouse, in vivo
Mus musculus [3] = assay: Anticonvulsant activity in ip dosed CF-1 albino mouse assessed as protection against maximal electroshock-induced seizures after 4 hrs; format: functional
Mus musculus [4] = assay: Anticonvulsant activity in CF-1 albino mouse assessed as protection against maximal electroshock-induced seizures at 300 mg/kg, ip after 0.5 hrs; format: functional, organism-based; set-up: dose 300 mg/kg
Mus musculus [5] = assay: Anticonvulsant activity in CF-1 albino mouse assessed as protection against maximal electroshock-induced seizures at 300 mg/kg, ip after 4 hrs; format: functional, organism-based; set-up: dose 300 mg/kg
Mus musculus [6] = assay: Neurotoxicity in CF-1 albino mouse at 300 mg/kg, ip after 4 hrs by rotarod test; format: toxicity, organism-based; set-up: dose 300 mg/kg, route intraperitoneal; details: in vivo
Rattus norvegicus [7] = assay: Neurotoxicity in Sprague-Dawley albino rat assessed as motor impairment at 30 mg/kg, po; format: toxicity, organism-based; set-up: dose 30 mg/kg, route oral; details: in vivo
Rattus norvegicus [8] = assay: Anticonvulsant activity in Sprague-Dawley albino rat assessed as protection against maximal electroshock-induced seizures at 30 mg/kg, po after 2 hrs; format: functional
Rattus norvegicus [9] = assay: Anticonvulsant activity in Sprague-Dawley albino rat assessed as protection against maximal electroshock-induced seizures at 30 mg/kg, po after 4 hrs; format: functional
Rattus norvegicus [10] = assay: Anticonvulsant activity in Sprague-Dawley albino rat assessed as protection against maximal electroshock-induced seizures at 30 mg/kg, po after 0.25 hrs; format: functional
Rattus norvegicus [11] = assay: Anticonvulsant activity in Sprague-Dawley albino rat assessed as protection against maximal electroshock-induced seizures at 30 mg/kg, po after 0.5 hrs; format: functional
Rattus norvegicus [12] = assay: Anticonvulsant activity in Sprague-Dawley albino rat assessed as protection against maximal electroshock-induced seizures at 30 mg/kg, po after 1 hr; format: functional
Vibrio harveyi [13] = assay: Induction of mutagenecity in Vibrio harveyi BB7; format: organism-based; details: in vivo
Vibrio harveyi [14] = assay: Induction of mutagenecity in Vibrio harveyi BB7X; format: organism-based; details: in vivo
Vibrio harveyi [15] = assay: Induction of mutagenecity in Vibrio harveyi BB7XM; format: organism-based; details: in vivo
Vibrio harveyi [16] = assay: Induction of mutagenecity in Vibrio harveyi BB7M; format: organism-based; details: in vivo
Mus musculus [17] = assay: Neurotoxicity in CF-1 albino mouse at 300 mg/kg, ip after 0.5 hrs by rotarod test; format: toxicity, organism-based; set-up: dose 300 mg/kg, route intraperitoneal; details: in vivo
Vibrio harveyi [18] = assay: Antimutagenic activity in Vibrio harveyi BB7M assessed as inhibition of 4-nitroquinoline-N-oxide-induced mutation; format: functional
Vibrio harveyi [19] = assay: Antimutagenic activity in Vibrio harveyi BB7XM assessed as inhibition of 4-nitroquinoline-N-oxide-induced mutation; format: functional
Vibrio harveyi [20] = assay: Antimutagenic activity in Vibrio harveyi BB7X assessed as inhibition of 4-nitroquinoline-N-oxide-induced mutation; format: functional
Vibrio harveyi [21] = assay: Antimutagenic activity in Vibrio harveyi BB7 assessed as inhibition of 4-nitroquinoline-N-oxide-induced mutation; format: functional
Mus musculus [22] = assay: Anticonvulsant activity in ip dosed CF-1 albino mouse assessed as protection against maximal electroshock-induced seizures after 0.5 hrs; format: functional
Rattus norvegicus [23] = species: Rattus norvegicus; assay: Protective index, ratio of TD50 for Sprague-Dawley albino rat by rotarod test to ED50 for Sprague-Dawley albino rat; format: functional
[24] = Neurotoxicity in po dosed Sprague-Dawley albino rat at 30 mg/kg, po after 0.25 to 4 hrs by rotarod test; format: toxicity, organism-based; set-up: dose 30 mg/kg, route oral; details: in vivo
Rattus norvegicus [25] = assay: Anticonvulsant activity in po dosed Sprague-Dawley albino rat assessed as protection against maximal electroshock-induced seizures after 0.25 to 4 hrs; format: functional
Rattus norvegicus [26] = assay: Anticonvulsant activity in Sprague-Dawley albino rat assessed as time of peak effect for protection against maximal electroshock-induced seizures at 30 mg/kg, po; format: functional
Mus musculus [27] = assay: Anticonvulsant activity in CF-1 albino mouse assessed as time of peak effect for protection against maximal electroshock-induced seizures at 30 to 300 mg/kg, ip; format: functional; details: dose mg/kg 30-300; route intraperitoneal

Row | SMILES | TD50 at 4 h [1] [mg/kg] | TD50 at 0.5 h [2] [mg/kg] | MED50 (Mus musculus [3]) [mg/kg] | Activity (Mus musculus [4]) | Activity (Mus musculus [5]) | Activity (Mus musculus [6]) | Activity (Vibrio harveyi [13]) | Activity (Vibrio harveyi [14]) | Activity (Vibrio harveyi [15]) | Activity (Vibrio harveyi [16]) | also measured
1 | CC1(C)CC(=O)N(CN2CCN(c3ccccc3)CC2)C1=O | 300 | 300 | 100 | inactive |  |  |  |  |  |  | 
2 | COc1ccccc1N1CCN(CN2C(=O)CC(C)(C)C2=O)CC1 |  | 300 |  | inactive | inactive | Non-toxic |  |  |  |  | 
3 | CC1(C)CC(=O)N(CN2CCN(c3cccc(C(F)(F)F)c3)CC2)C1=O | 300 | 300 | 30 | inactive |  |  |  |  |  |  | Activity (Rattus norvegicus [7]): Non-toxic; Activity (Rattus norvegicus [8]): 50%; Activity (Rattus norvegicus [9]): Active; Activity (Rattus norvegicus [10]): 25%; Activity (Rattus norvegicus [11]): 75%; Activity (Rattus norvegicus [12]): 25%
4 | Cc1ccccc1N1CCN(CN2C(=O)CC(C)(c3ccccc3)C2=O)CC1 (configuration not stated) |  | 300 |  | inactive | inactive | Non-toxic | Non-toxic | Non-toxic | Toxic | Toxic | 
5 | CC1(C)CC(=O)N(CN2CCN(c3ccc(Cl)c(Cl)c3)CC2)C1=O |  |  |  | inactive | inactive | Non-toxic |  |  |  |  | Activity (Mus musculus [17]): Non-toxic
6 | CC1(c2ccccc2)CC(=O)N(CN2CCN(c3ccc(Cl)cc3)CC2)C1=O (configuration not stated) |  |  | 100 | inactive |  | Non-toxic | Non-toxic | Non-toxic | Non-toxic | Non-toxic | inhibition (INH) (Vibrio harveyi [18]): 43%; Activity (Mus musculus [17]): Non-toxic; Activity (Rattus norvegicus [7]): Non-toxic; inhibition (INH) (Vibrio harveyi [19]): 43%; Activity (Rattus norvegicus [8]): 75%; Activity (Rattus norvegicus [9]): 75%; Activity (Rattus norvegicus [10]): inactive; Activity (Rattus norvegicus [11]): inactive; inhibition (INH) (Vibrio harveyi [20]): 0%; inhibition (INH) (Vibrio harveyi [21]): 6%; Activity (Rattus norvegicus [12]): 75%
7 | CC1(c2ccccc2)CC(=O)N(CN2CCN(c3cccc(C(F)(F)F)c3)CC2)C1=O (configuration not stated) | 300 |  | 100 | inactive |  |  |  |  |  |  | Activity (Mus musculus [17]): Non-toxic
8 | CC1(c2ccccc2)CC(=O)N(CN2CCN(c3ccccc3F)CC2)C1=O (configuration not stated) | 300 | 300 | 100 | inactive |  |  | Non-toxic | Non-toxic | Non-toxic | Non-toxic | inhibition (INH) (Vibrio harveyi [18]): 57%; inhibition (INH) (Vibrio harveyi [19]): 35%; inhibition (INH) (Vibrio harveyi [20]): 0%; inhibition (INH) (Vibrio harveyi [21]): 25%
9 | CCC1(C)CC(=O)NC1=O (configuration not stated) [ETHOSUXIMIDE] |  |  |  |  |  |  | Non-toxic | Non-toxic | Non-toxic | Non-toxic | inhibition (INH) (Vibrio harveyi [18]): 43%; inhibition (INH) (Vibrio harveyi [19]): 43%; inhibition (INH) (Vibrio harveyi [20]): 0%; inhibition (INH) (Vibrio harveyi [21]): 30%
10 | Cc1cccc(N2CCN(CN3C(=O)CC(C)(c4ccccc4)C3=O)CC2)c1 (configuration not stated) | 300 | 300 | 100 |  |  |  | Non-toxic | Non-toxic | Toxic | Toxic | MED50 (Mus musculus [22]): 100 mg/kg; Activity (Rattus norvegicus [7]): Non-toxic; Activity (Rattus norvegicus [8]): 50%; Activity (Rattus norvegicus [9]): 50%; Activity (Rattus norvegicus [10]): inactive; Activity (Rattus norvegicus [11]): inactive; Activity (Rattus norvegicus [12]): 50%
11 | CC1(C)CC(=O)N(CN2CCN(c3ccc(F)cc3)CC2)C1=O |  | 300 |  | inactive | inactive | Non-toxic |  |  |  |  | 
12 | COc1cccc(N2CCN(CN3C(=O)CC(C)(C)C3=O)CC2)c1 |  | 300 | 100 | inactive |  | Non-toxic |  |  |  |  | Activity (Rattus norvegicus [7]): Non-toxic; Activity (Rattus norvegicus [8]): inactive; Activity (Rattus norvegicus [9]): inactive; Activity (Rattus norvegicus [10]): inactive; Activity (Rattus norvegicus [11]): 25%; Activity (Rattus norvegicus [12]): inactive
13 | O=C1CC2(CCc3ccccc3C2)C(=O)N1CN1CCN(c2cccc(Cl)c2)CC1 (configuration not stated) |  |  |  |  |  |  |  |  |  |  | Ratio TD50/ED50 (Rattus norvegicus [23]): >25.69; TD50 [24]: > 400 mg/kg; ED50 (Rattus norvegicus [25]): 15.6 mg/kg
14 | O=C1NC(=O)C(c2ccccc2)(c2ccccc2)N1 [PHENYTOIN] |  |  |  |  |  |  |  |  |  |  | Time (Rattus norvegicus [26]): 2 h; Ratio TD50/ED50 (Rattus norvegicus [23]): >3.6; TD50 [24]: > 100 mg/kg; Time (Mus musculus [27]): 1 h; Activity (Rattus norvegicus [8]): 75%; Activity (Rattus norvegicus [9]): 75%; Activity (Rattus norvegicus [10]): 25%; Activity (Rattus norvegicus [11]): Active; Activity (Rattus norvegicus [12]): 75%
15 | CC1(C)CC(=O)N(CN2CCN(c3cccc(Cl)c3)CC2)C1=O | 300 | 300 |  | inactive | inactive |  |  |  |  |  | 
16 | CC1(C)CC(=O)N(CN2CCN(c3ccccc3Cl)CC2)C1=O |  | 100 |  | inactive | inactive | Non-toxic |  |  |  |  | 
17 | CC1(C)CC(=O)N(CN2CCN(c3ccc(Cl)cc3)CC2)C1=O |  | 300 |  | inactive | inactive | Non-toxic |  |  |  |  | 
18 | CC1(C)CC(=O)N(CN2CCN(c3ccccc3F)CC2)C1=O |  | 300 | 100 | inactive |  | Non-toxic |  |  |  |  | 
19 | CC1(c2ccccc2)CC(=O)N(CN2CCN(c3ccccc3Cl)CC2)C1=O (configuration not stated) |  |  |  | inactive | inactive | Non-toxic | Non-toxic | Non-toxic | Non-toxic | Non-toxic | inhibition (INH) (Vibrio harveyi [18]): 47%; Activity (Mus musculus [17]): Non-toxic; inhibition (INH) (Vibrio harveyi [19]): 49%; inhibition (INH) (Vibrio harveyi [20]): 0%; inhibition (INH) (Vibrio harveyi [21]): 3%
20 | Cc1ccccc1N1CCN(CN2C(=O)CC(C)(C)C2=O)CC1 | 300 | 300 |  | inactive | inactive |  |  |  |  |  | 
21 | Cc1cccc(N2CCN(CN3C(=O)CC(C)(C)C3=O)CC2)c1 |  | 300 |  | inactive | inactive | Non-toxic |  |  |  |  | 
22 | O=C1CC(c2ccccc2Br)C(=O)N1CN1CCN(c2ccc(F)cc2)CC1 (configuration not stated) |  |  |  |  |  |  |  |  |  |  | TD50 [24]: 62.4 mg/kg; ED50 (Rattus norvegicus [25]): 7.4 mg/kg
23 | O=C1CC(c2ccccc2)(c2ccccc2)C(=O)N1CN1CCN(c2cccc(C(F)(F)F)c2)CC1 |  |  |  |  |  |  |  |  |  |  | Ratio TD50/ED50 (Rattus norvegicus [23]): <13.2; TD50 [24]: < 400 mg/kg; ED50 (Rattus norvegicus [25]): 30 mg/kg
24 | COc1ccccc1N1CCN(CN2C(=O)CC(C)(c3ccccc3)C2=O)CC1 (configuration not stated) | 300 | 300 | 100 |  |  |  | Non-toxic | Non-toxic | Toxic | Toxic | MED50 (Mus musculus [22]): 100 mg/kg; Activity (Rattus norvegicus [7]): Non-toxic; Activity (Rattus norvegicus [8]): 50%; Activity (Rattus norvegicus [9]): 50%; Activity (Rattus norvegicus [10]): inactive; Activity (Rattus norvegicus [11]): inactive; Activity (Rattus norvegicus [12]): 50%
25 | COc1cccc(N2CCN(CN3C(=O)CC(C)(c4ccccc4)C3=O)CC2)c1 (configuration not stated) |  |  | 100 |  |  | Non-toxic | Non-toxic | Non-toxic | Toxic | Toxic | Activity (Mus musculus [17]): Non-toxic; MED50 (Mus musculus [22]): 100 mg/kg
26 | CC1(c2ccccc2)CC(=O)N(CN2CCN(c3ccccc3)CC2)C1=O (configuration not stated) |  |  | 100 | inactive |  | Non-toxic | Non-toxic | Non-toxic | Non-toxic | Non-toxic | inhibition (INH) (Vibrio harveyi [18]): 38%; Activity (Mus musculus [17]): Non-toxic; inhibition (INH) (Vibrio harveyi [19]): 40%; inhibition (INH) (Vibrio harveyi [20]): 0%; inhibition (INH) (Vibrio harveyi [21]): 28%
